ChEMBL document CHEMBL1201862, “PubChem BioAssay data set” (2004)
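Protocol summary: plate cells (96-well), add compound at 5 concentrations, incubate 48 h, interpolate endpoints linearly. GI50: concentration for 50% inhibition of growth.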 Active and inactive are the calls of the source. Rule as the data show it: active = GI50 up to about 1.1 µM and inactive = higher.

Legend:
Test in all cases: NCI anticancer screen, dose series, 48 h
TK-10 = test system: TK-10
MDA-MB-435 = test system: MDA-MB-435
OVCAR-3 = test system: OVCAR-3
SW-620 = test system: SW-620
NCI-H522 = test system: NCI-H522
SK-MEL-5 = test system: SK-MEL-5
BT-549 = test system: BT-549
M14 = test system: M14
HCT-116 = test system: HCT-116
SF-295 = test system: SF-295
CCRF-CEM = test system: CCRF-CEM
SN12C = test system: SN12C
EKVX = test system: EKVX
786-0 = test system: 786-0
SK-MEL-2 = test system: SK-MEL-2
SNB-75 = test system: SNB-75
IGROV-1 = test system: IGROV-1
MCF7 = test system: MCF7
HOP-92 = test system: HOP-92

| SMILES | GI50 (TK-10) | GI50 (MDA-MB-435) | GI50 (OVCAR-3) | GI50 (SW-620) | GI50 (NCI-H522) | GI50 (SK-MEL-5) | GI50 (BT-549) | GI50 (M14) | GI50 (HCT-116) | GI50 (SF-295) | GI50 (CCRF-CEM) | GI50 (SN12C) | GI50 (EKVX) | GI50 (786-0) | GI50 (SK-MEL-2) | GI50 (SNB-75) | GI50 (IGROV-1) | GI50 (MCF7) | GI50 (HOP-92) |
| --- | --- | --- | --- | --- | --- | --- | --- | --- | --- | --- | --- | --- | --- | --- | --- | --- | --- | --- | --- |
| Cn1c(=O)c2nc(CS(=O)(=O)Cc3nc4c(=O)n(C)c(=O)n(C)c4[nH]3)[nH]c2n(C)c1=O | > 100 µM (inactive) | > 100 µM (inactive) | > 100 µM (inactive) | > 100 µM (inactive) | > 100 µM (inactive) | > 100 µM (inactive) | > 100 µM (inactive) | > 100 µM (inactive) | > 100 µM (inactive) | > 100 µM (inactive) | > 100 µM (inactive) | > 100 µM (inactive) | > 100 µM (inactive) | > 100 µM (inactive) | > 100 µM (inactive) | > 100 µM (inactive) | > 100 µM (inactive) | 28.1 µM (inactive) |  |
| Cc1ccc(-c2cc(N)n(-c3nc4c(c(=O)n(C)c(=O)n4C)n3C)n2)cc1 | > 100 µM (inactive) | > 100 µM (inactive) | > 100 µM (inactive) |  | 86.5 µM (inactive) | 32.4 µM (inactive) | > 100 µM (inactive) | > 100 µM (inactive) | > 100 µM (inactive) | 62.7 µM (inactive) | > 100 µM (inactive) | > 100 µM (inactive) | 62.2 µM (inactive) | 42.2 µM (inactive) | > 100 µM (inactive) |  | > 100 µM (inactive) | > 100 µM (inactive) | > 100 µM (inactive) |
| O=C(c1ccccc1)c1cc(-c2ccccc2)c(-c2ccccc2)[nH]c(=O)c1=O | 56.2 µM (inactive) | 30.5 µM (inactive) | 35.6 µM (inactive) | 37.2 µM (inactive) | 22.1 µM (inactive) | 31.6 µM (inactive) | 22.5 µM (inactive) | 41.2 µM (inactive) | 35.2 µM (inactive) | 40.7 µM (inactive) | 15.2 µM (inactive) | 35.2 µM (inactive) | 33.7 µM (inactive) | > 100 µM (inactive) | 24.3 µM (inactive) |  | 60 µM (inactive) | 31.5 µM (inactive) | 41.1 µM (inactive) |
| CCCC(=O)Nc1cc([N+](=O)[O-])c([N+](=O)[O-])cc1OC | 17.2 µM (inactive) | 18.4 µM (inactive) | 14.6 µM (inactive) | 22.4 µM (inactive) | 12.9 µM (inactive) | 16.6 µM (inactive) | 17.3 µM (inactive) | 12.8 µM (inactive) | 17.1 µM (inactive) | 10.1 µM (inactive) | 14.1 µM (inactive) | 15.6 µM (inactive) | 17.7 µM (inactive) | 26.3 µM (inactive) | 16.5 µM (inactive) | 16.7 µM (inactive) | 20.9 µM (inactive) | 29.5 µM (inactive) |  |
| COc1ccc(CC(=O)N2CCC3(C)CC(=O)CC=C23)cc1OC (centres undefined) | < 0.01 µM (active) | > 100 µM (inactive) | > 100 µM (inactive) | > 100 µM (inactive) | 33.6 µM (inactive) | > 100 µM (inactive) | > 100 µM (inactive) | > 100 µM (inactive) | > 100 µM (inactive) | > 100 µM (inactive) |  | > 100 µM (inactive) | > 100 µM (inactive) | > 100 µM (inactive) | > 100 µM (inactive) |  | > 100 µM (inactive) | > 100 µM (inactive) | > 100 µM (inactive) |
| COc1ccc(C2=NN=C3C(c4ccccc4)=Nc4ccccc4N3C2)cc1 | 23.5 µM (inactive) | 27.2 µM (inactive) | 3.06 µM (inactive) | 14.9 µM (inactive) |  | 21.3 µM (inactive) | 40 µM (inactive) | 15.5 µM (inactive) | 14.6 µM (inactive) |  | 2.16 µM (inactive) | 27.8 µM (inactive) | > 100 µM (inactive) | 10.6 µM (inactive) | 22.6 µM (inactive) |  | 29.4 µM (inactive) | 21.7 µM (inactive) | 85.9 µM (inactive) |
| CC(C)[C@@H](C)[C@@]1(C)C[C@@H]1[C@@H](C)[C@H]1CC[C@@H]([C@@H]2CC=C3C[C@@H](O)CC[C@]3(C)C2=O)[C@]1(C)CCO | 11.5 µM (inactive) | 11.9 µM (inactive) | 12.8 µM (inactive) | 7.55 µM (inactive) | 6.9 µM (inactive) | 13.1 µM (inactive) | 16.6 µM (inactive) |  | 10.1 µM (inactive) | 9.2 µM (inactive) |  | 12.9 µM (inactive) | 12.9 µM (inactive) | 5.53 µM (inactive) | 18.3 µM (inactive) | 5.66 µM (inactive) | 15.6 µM (inactive) | 10.9 µM (inactive) |  |
| O=C(c1cccnc1)N1N=C(c2ccccc2)CC1(O)c1cc(F)c(Cl)cc1Cl (centres undefined) | 41 µM (inactive) | 26.9 µM (inactive) | 7.31 µM (inactive) | 28.3 µM (inactive) | 26.1 µM (inactive) | 13.9 µM (inactive) | 20.3 µM (inactive) | 22 µM (inactive) | 13.8 µM (inactive) | 16.3 µM (inactive) | 24.6 µM (inactive) | 17.2 µM (inactive) | 21.8 µM (inactive) | 22.1 µM (inactive) | 19.4 µM (inactive) | 16.4 µM (inactive) | 10.4 µM (inactive) |  | 20.7 µM (inactive) |
| CNC(=O)c1cc2nc3ccccc3c(=O)n2c2ccccc12 | > 10 µM (inactive) | > 10 µM (inactive) | > 10 µM (inactive) | > 10 µM (inactive) | > 10 µM (inactive) | > 10 µM (inactive) | > 10 µM (inactive) | > 10 µM (inactive) | > 10 µM (inactive) | > 10 µM (inactive) | > 10 µM (inactive) | > 10 µM (inactive) | > 10 µM (inactive) | > 10 µM (inactive) | > 10 µM (inactive) |  | > 10 µM (inactive) | > 10 µM (inactive) | > 10 µM (inactive) |
| C=[N+](CNC(=O)CNC(=O)C(Cc1ccc([N+](=O)[O-])cc1)NC(=O)OC(C)(C)C)C(=O)CNC(=O)C(Cc1ccc([N+](=O)[O-])cc1)NC(=O)OC(C)(C)C (centres undefined) | > 100 µM (inactive) | 26.2 µM (inactive) | 50.1 µM (inactive) | 41.6 µM (inactive) | 24.3 µM (inactive) | 35.6 µM (inactive) | 28.1 µM (inactive) | 28.1 µM (inactive) | 36.2 µM (inactive) | 46.6 µM (inactive) |  | 47.9 µM (inactive) | > 100 µM (inactive) | 69.5 µM (inactive) |  | 32.9 µM (inactive) | 42.4 µM (inactive) | 40.8 µM (inactive) | 38.1 µM (inactive) |
| COC(=O)[C@@]12C(=O)C(C)C(=O)[C@]1(C)C(C)=C[C@H]1[C@]3(C=O)CC[C@H](OC(C)=O)C(C)(C)[C@H]3CC[C@@]12C (some centres undefined) | > 100 µM (inactive) | 97.3 µM (inactive) | > 100 µM (inactive) | > 100 µM (inactive) | 51.9 µM (inactive) | > 100 µM (inactive) | > 100 µM (inactive) | > 100 µM (inactive) | > 100 µM (inactive) | > 100 µM (inactive) | 4.06 µM (inactive) |  | > 100 µM (inactive) | > 100 µM (inactive) | > 100 µM (inactive) | > 100 µM (inactive) |  |  | > 100 µM (inactive) |
| COc1ccc2[nH]c3c(c2c1)CC(=S)N1CCCC(CC3=O)C1 (centres undefined) | > 100 µM (inactive) | 46.3 µM (inactive) | 45.8 µM (inactive) | 52.7 µM (inactive) |  | 37.1 µM (inactive) | > 100 µM (inactive) | 45.9 µM (inactive) | 29.4 µM (inactive) | 39.7 µM (inactive) | 50.2 µM (inactive) | 63 µM (inactive) | 37.8 µM (inactive) | 58.2 µM (inactive) | 29.3 µM (inactive) | 52.4 µM (inactive) | 64.4 µM (inactive) | 34.3 µM (inactive) | > 100 µM (inactive) |
| Cc1nc2cc(C(F)(F)F)ccc2[nH]c1=O | > 100 µM (inactive) | > 100 µM (inactive) | > 100 µM (inactive) | > 100 µM (inactive) |  | > 100 µM (inactive) | > 100 µM (inactive) | > 100 µM (inactive) | > 100 µM (inactive) | > 100 µM (inactive) | > 100 µM (inactive) | > 100 µM (inactive) | 7.08 µM (inactive) | > 100 µM (inactive) | > 100 µM (inactive) | > 100 µM (inactive) |  | > 100 µM (inactive) | > 100 µM (inactive) |
| c1csc(-c2ccc(-c3ccc(-c4cccs4)s3)s2)c1 | > 100 µM (inactive) | > 100 µM (inactive) | > 100 µM (inactive) | > 100 µM (inactive) | > 100 µM (inactive) | > 100 µM (inactive) | > 100 µM (inactive) | > 100 µM (inactive) | > 100 µM (inactive) | > 100 µM (inactive) |  | > 100 µM (inactive) | > 100 µM (inactive) | > 100 µM (inactive) | > 100 µM (inactive) | > 100 µM (inactive) | > 100 µM (inactive) | > 100 µM (inactive) |  |
| CCCCCCNc1n[nH]c(=O)c2c1nnn2Cc1ccccc1 | > 100 µM (inactive) | > 100 µM (inactive) | > 100 µM (inactive) |  |  | > 100 µM (inactive) | > 100 µM (inactive) | > 100 µM (inactive) | > 100 µM (inactive) | > 100 µM (inactive) | > 100 µM (inactive) | > 100 µM (inactive) | > 100 µM (inactive) | > 100 µM (inactive) | > 100 µM (inactive) |  |  | > 100 µM (inactive) | 86.9 µM (inactive) |
| CC(C)=CCN1CC(C)C(=O)Nc2cc(Cl)ccc21 (centres undefined) | 19.3 µM (inactive) | 23.4 µM (inactive) | 15.1 µM (inactive) | 26.7 µM (inactive) | 17.3 µM (inactive) | 13.6 µM (inactive) | 18.7 µM (inactive) | 23.2 µM (inactive) | 16.2 µM (inactive) | 27.1 µM (inactive) | 29.4 µM (inactive) | 15.9 µM (inactive) | 26.2 µM (inactive) | 19.2 µM (inactive) | 16.2 µM (inactive) |  | 24.3 µM (inactive) | 18.7 µM (inactive) | 10.8 µM (inactive) |
